According to EP1709964A2, “A method of cosmetic depigmentation care by applying at least one aurone” (ENGELHARD LYON, priority 2005, dated 2006):

Test system: tyrosinase from mushroom
Assay: In vitro test of the inhibition of isolated tyrosinase (L-DOPA to dopachrome, OD 490 nm)
Type: biochemical
Settings: 10^-4M; 490 nm
Source text: Tyrosinase catalyses the formation of L-dopaquinone, and then dopachrome, from L-Dopa. Dopachrome is a colored compound which is quantifiable by visible spectrophotometry at 490 nm. The use of an active which is capable of modifying the enzymatic activity manifests itself by a variation in the optical density at 490nm.
The ratio of the rates of formation of the dopachrome enables the activations or the inhibitions obtained with the various molecules tested to de determined precisely.
The sample to be tested is incubated in the presence of tyrosinase from mushroom (Sigma) for 5 minutes under agitation. L-DOPA (Sigma), substrate of the tyrosinase, is incubated for 10 minutes in the dark in the presence or the absence of the molecules to be tested. The calculation of the percentage inhibition is made by comparing the OD of the test to the OD of the negative control without molecule.
Within the context of this in vitro test, the aurone derivatives were tested at final concentrations of 10^-4M and 10^-5M.

| Compound | Inhibition of tyrosinase from mushroom, percentage inhibition [%] |
| --- | --- |
| COc1cc(OC)c2c(c1)O/C(=C\c1ccccc1)C2=O [Example 5, (Z)-2-Benzylidene-4,6-dimethoxybenzofuran-3(2H)-one] | 0 ± 1.58 |
| COc1cc(OC)c2c(c1)O/C(=C\c1ccc(O)cc1)C2=O [Example 5a, (Z)-4,6-dimethoxy-2-(4'-hydroxybenzylidene)benzofuran-3(2H)-one] | 0 ± 1.33 |
| CCc1ccc(/C=C2\Oc3cc(OC)cc(OC)c3C2=O)cc1 [Example 5b, (Z)-4,6-dimethoxy-2-(4'-ethylbenzylidene)benzofuran-3(2H)-one] | 0 ± 4.21 |
| COc1cc(OC)c2c(c1)O/C(=C\c1ccc(SC)cc1)C2=O [Example 5c, (Z)-4,6-dimethoxy-2-(4'-methylthiobenzylidene)benzofuran-3(2H)-one] | 0 ± 1.64 |
| COc1cc(OC)c2c(c1)O/C(=C\c1ccc(C#N)cc1)C2=O [Example 5d, (Z)-2-(4-cyanobenzylidene)-4,6-dimethoxybenzofuran-3(2H)-one] | 0 ± 2.42 |
| COc1cc(O)c2c(c1)O/C(=C\c1ccccc1)C2=O [Example 6, (Z)-2-Benzylidene-4-hydroxy-6-methoxybenzofuran-3(2H)-one] | 31.22 ± 3.94 |
| COc1cc(O)c2c(c1)O/C(=C\c1ccc(SC)cc1)C2=O [Example 6c] | 23.65 ± 9.36 |
| COc1cc(O)c2c(c1)O/C(=C\c1ccc(C#N)cc1)C2=O [Example 6d] | 0 ± 3.51 |
| CCc1ccc(/C=C2\Oc3cc(O)cc(O)c3C2=O)cc1 [Example 7b] | 54.57 ± 3.01 |

Same assay, conditions: 10^-5M; 490 nm

| Compound | Inhibition of tyrosinase from mushroom, percentage inhibition [%] |
| --- | --- |
| COc1cc(OC)c2c(c1)O/C(=C\c1ccccc1)C2=O [Example 5, (Z)-2-Benzylidene-4,6-dimethoxybenzofuran-3(2H)-one] | 0 ± 0.28 |
| COc1cc(OC)c2c(c1)O/C(=C\c1ccc(O)cc1)C2=O [Example 5a, (Z)-4,6-dimethoxy-2-(4'-hydroxybenzylidene)benzofuran-3(2H)-one] | 0 ± 3.90 |
| CCc1ccc(/C=C2\Oc3cc(OC)cc(OC)c3C2=O)cc1 [Example 5b, (Z)-4,6-dimethoxy-2-(4'-ethylbenzylidene)benzofuran-3(2H)-one] | 0 ± 2.5 |
| COc1cc(OC)c2c(c1)O/C(=C\c1ccc(SC)cc1)C2=O [Example 5c, (Z)-4,6-dimethoxy-2-(4'-methylthiobenzylidene)benzofuran-3(2H)-one] | 1.07 ± 4.37 |
| COc1cc(OC)c2c(c1)O/C(=C\c1ccc(C#N)cc1)C2=O [Example 5d, (Z)-2-(4-cyanobenzylidene)-4,6-dimethoxybenzofuran-3(2H)-one] | 0 ± 5.47 |
| COc1cc(O)c2c(c1)O/C(=C\c1ccccc1)C2=O [Example 6, (Z)-2-Benzylidene-4-hydroxy-6-methoxybenzofuran-3(2H)-one] | 0 ± 2.27 |
| COc1cc(O)c2c(c1)O/C(=C\c1ccc(SC)cc1)C2=O [Example 6c] | 0 ± 5.84 |
| COc1cc(O)c2c(c1)O/C(=C\c1ccc(C#N)cc1)C2=O [Example 6d] | 0 ± 3.94 |
| CCc1ccc(/C=C2\Oc3cc(O)cc(O)c3C2=O)cc1 [Example 7b] | 14.63 ±6.73 |

Same assay, conditions: kojic acid at 0.01%

| Compound | inhibition (positive control) [%] |
| --- | --- |
| O=c1cc(CO)occ1O [Kojic acid, kojic acid] | 45 |

Target: T1, Human tyrosinase (Homo sapiens, UniProt P14679)
T1 construct: Normal human melanocytes (originating from abdominal plasty) are sown in a 24-well plate; endogenous in cells; host or cells: normal human melanocytes from abdominal plasty; donors of light, brown and black phototype
T1 sequence (P14679 19-529): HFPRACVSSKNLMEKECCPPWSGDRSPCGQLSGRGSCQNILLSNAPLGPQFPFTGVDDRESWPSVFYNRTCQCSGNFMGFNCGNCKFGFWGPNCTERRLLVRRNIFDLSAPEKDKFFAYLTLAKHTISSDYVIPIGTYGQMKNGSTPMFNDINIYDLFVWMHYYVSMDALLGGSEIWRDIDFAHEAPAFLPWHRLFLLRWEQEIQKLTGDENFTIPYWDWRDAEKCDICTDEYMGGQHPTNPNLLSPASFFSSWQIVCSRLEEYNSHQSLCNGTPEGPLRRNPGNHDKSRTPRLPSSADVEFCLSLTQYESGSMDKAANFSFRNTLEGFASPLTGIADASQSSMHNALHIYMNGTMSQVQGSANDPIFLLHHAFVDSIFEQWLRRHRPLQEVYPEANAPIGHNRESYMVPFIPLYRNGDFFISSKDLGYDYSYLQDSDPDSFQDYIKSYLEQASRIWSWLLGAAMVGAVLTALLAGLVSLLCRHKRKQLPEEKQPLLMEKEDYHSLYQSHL
Assay: Inhibition of human tyrosinase in a monolayer after 24 h application of the actives on normal human melanocytes (MBTH/L-Dopa, OD 490 nm/protein)
Type: cell-based
Settings: 10^-4M; 24 hours; read-out: Inhibition of human tyrosinase after application on normal human melanocytes, percentage inhibition
Description: Normal human melanocytes (originating from abdominal plasty) are sown in a 24-well plate at the rate of 80,000 cells per well. They are cultivated up to confluence and the actives are applied for 24 hours in the culture media. After 24 hours, the media are removed and the melanocytes are picked up by mechanical action. An extraction is made by heat shock and the supernatants are then recovered and then incubated with MBTH (Sigma) and L-Dopa (Sigma).
The compound obtained in Example 9b was tested on melanocytes originating from various donors but of light phototypes according to the method described in Example 15. […] Table 6 : Inhibition of tyrosinase by compound 9b on 4 different donors.
The compound obtained in Example 9b is tested on cultures of melanocytes originating from 2 donors of brown phototypes and from one donor of negroid phototype. The method applied is that described in Example 15.
A study is made with molecules known in the literature for their depigmenting activity. These molecules are applied to the model described in Example 15 so as to compare their efficiency with respect to the aurones described above.

| Compound | inhibition at 100 µM [%] |
| --- | --- |
| COc1cc(OC)c2c(c1)OCC2=O [Example 4, 4,6-Dimethoxybenzofuran-3(2H)-one] | 0 |
| COc1cc(OC)c2c(c1)O/C(=C\c1ccccc1)C2=O [Example 5, (Z)-2-Benzylidene-4,6-dimethoxybenzofuran-3(2H)-one] | 0 |
| COc1cc(OC)c2c(c1)O/C(=C\c1ccc(O)cc1)C2=O [Example 5a, (Z)-4,6-dimethoxy-2-(4'-hydroxybenzylidene)benzofuran-3(2H)-one] | 14.4 |
| COc1cc(OC)c2c(c1)O/C(=C\c1ccc(SC)cc1)C2=O [Example 5c, (Z)-4,6-dimethoxy-2-(4'-methylthiobenzylidene)benzofuran-3(2H)-one] | 0 |
| COc1cc(OC)c2c(c1)O/C(=C\c1ccc(C#N)cc1)C2=O [Example 5d, (Z)-2-(4-cyanobenzylidene)-4,6-dimethoxybenzofuran-3(2H)-one] | 0 |
| COc1cc(O)c2c(c1)O/C(=C\c1ccc(C#N)cc1)C2=O [Example 6d] | 2.31 |

Same assay, conditions: 10^-5M; 24 hours

| Compound | Inhibition of human tyrosinase after application on normal human melanocytes, percentage inhibition [%] |
| --- | --- |
| 4,6-Dihydroxybenzofuran-3(2H)-one (R1 = OH) and 6-Hydroxybenzofuran-3(2H)-one (R1 = H) [Example 2] | 9.69 |

Same assay, conditions: 10^-5M; 24 hours; read-out: Inhibition of human tyrosinase after application on normal human melanocytes, percentage inhibition

| Compound | inhibition at 10 µM [%] |
| --- | --- |
| COc1cc(OC)c2c(c1)OCC2=O [Example 4, 4,6-Dimethoxybenzofuran-3(2H)-one] | 0 |
| COc1cc(OC)c2c(c1)O/C(=C\c1ccccc1)C2=O [Example 5, (Z)-2-Benzylidene-4,6-dimethoxybenzofuran-3(2H)-one] | 0 |
| COc1cc(OC)c2c(c1)O/C(=C\c1ccc(O)cc1)C2=O [Example 5a, (Z)-4,6-dimethoxy-2-(4'-hydroxybenzylidene)benzofuran-3(2H)-one] | 27.4 |
| CCc1ccc(/C=C2\Oc3cc(OC)cc(OC)c3C2=O)cc1 [Example 5b, (Z)-4,6-dimethoxy-2-(4'-ethylbenzylidene)benzofuran-3(2H)-one] | 19.4 |
| COc1cc(OC)c2c(c1)O/C(=C\c1ccc(SC)cc1)C2=O [Example 5c, (Z)-4,6-dimethoxy-2-(4'-methylthiobenzylidene)benzofuran-3(2H)-one] | 4.27 |
| COc1cc(OC)c2c(c1)O/C(=C\c1ccc(C#N)cc1)C2=O [Example 5d, (Z)-2-(4-cyanobenzylidene)-4,6-dimethoxybenzofuran-3(2H)-one] | 0 |
| COc1cc(O)c2c(c1)O/C(=C\c1ccccc1)C2=O [Example 6, (Z)-2-Benzylidene-4-hydroxy-6-methoxybenzofuran-3(2H)-one] | 0 |
| COc1cc(O)c2c(c1)O/C(=C\c1ccc(SC)cc1)C2=O [Example 6c] | 14.2 |
| COc1cc(O)c2c(c1)O/C(=C\c1ccc(C#N)cc1)C2=O [Example 6d] | 0 |
| CCc1ccc(/C=C2\Oc3cc(O)cc(O)c3C2=O)cc1 [Example 7b] | 4.52 |

Test system: normal human melanocytes
Assay: Cytotoxicity by PNPP determination (percentage viability)
Type: cell-based
Settings: 10^-4 M; 24 hours at 37°C; with respect to non-treated wells
Description: The cytotoxicity of the actives is studied on normal human melanocytes in a 24-well plate by a determination with PNPP (P-nitrophenyl phosphate), a substance which is converted into p-nitrophenol by the intracellular acid phosphatases of viable cells.
The absorbance of p-nitrophenol at 405 nm is directly proportional to the number of viable cells.
The actives are tested at 2 different concentrations (10^-4 M and 10^-5 M) and are added to the culture medium and are incubated at 37°C for 24 hours. The determination with PNPP is carried out on a cell mat and the results are expressed as a percentage viability with respect to the negative control (non-treated wells). The results obtained are summarized in Table 9 below : Tableau 9 : Percentages viability obtained for the various aurone derivatives on normal human melanocytes (the molecules were tested at 2 concentrations 10^-4 and 10^-5 M.

| Compound | Percentages viability [%] |
| --- | --- |
| 4,6-Dihydroxybenzofuran-3(2H)-one (R1 = OH) and 6-Hydroxybenzofuran-3(2H)-one (R1 = H) [Example 2] | 103.84 |
| COc1cc(OC)c2c(c1)OCC2=O [Example 4, 4,6-Dimethoxybenzofuran-3(2H)-one] | 106.77 |
| COc1cc(OC)c2c(c1)O/C(=C\c1ccccc1)C2=O [Example 5, (Z)-2-Benzylidene-4,6-dimethoxybenzofuran-3(2H)-one] | 83.1 |
| COc1cc(OC)c2c(c1)O/C(=C\c1ccc(O)cc1)C2=O [Example 5a, (Z)-4,6-dimethoxy-2-(4'-hydroxybenzylidene)benzofuran-3(2H)-one] | 104.53 |
| COc1cc(OC)c2c(c1)O/C(=C\c1ccc(SC)cc1)C2=O [Example 5c, (Z)-4,6-dimethoxy-2-(4'-methylthiobenzylidene)benzofuran-3(2H)-one] | 80.08 |
| COc1cc(OC)c2c(c1)O/C(=C\c1ccc(C#N)cc1)C2=O [Example 5d, (Z)-2-(4-cyanobenzylidene)-4,6-dimethoxybenzofuran-3(2H)-one] | 98.93 |
| COc1cc(O)c2c(c1)O/C(=C\c1ccc(C#N)cc1)C2=O [Example 6d] | 85.65 |
| CCc1ccc(/C=C2\Oc3cc(O)cc(O)c3C2=O)cc1 [Example 7b] | 63.52 |

Same assay, conditions: 10^-5 M; 24 hours at 37°C; with respect to non-treated wells

| Compound | Percentages viability [%] |
| --- | --- |
| 4,6-Dihydroxybenzofuran-3(2H)-one (R1 = OH) and 6-Hydroxybenzofuran-3(2H)-one (R1 = H) [Example 2] | 126.09 |
| COc1cc(OC)c2c(c1)OCC2=O [Example 4, 4,6-Dimethoxybenzofuran-3(2H)-one] | 85.33 |
| COc1cc(OC)c2c(c1)O/C(=C\c1ccccc1)C2=O [Example 5, (Z)-2-Benzylidene-4,6-dimethoxybenzofuran-3(2H)-one] | 98.55 |
| COc1cc(OC)c2c(c1)O/C(=C\c1ccc(O)cc1)C2=O [Example 5a, (Z)-4,6-dimethoxy-2-(4'-hydroxybenzylidene)benzofuran-3(2H)-one] | 90.87 |
| CCc1ccc(/C=C2\Oc3cc(OC)cc(OC)c3C2=O)cc1 [Example 5b, (Z)-4,6-dimethoxy-2-(4'-ethylbenzylidene)benzofuran-3(2H)-one] | 99.62 |
| COc1cc(OC)c2c(c1)O/C(=C\c1ccc(SC)cc1)C2=O [Example 5c, (Z)-4,6-dimethoxy-2-(4'-methylthiobenzylidene)benzofuran-3(2H)-one] | 136.13 |
| COc1cc(OC)c2c(c1)O/C(=C\c1ccc(C#N)cc1)C2=O [Example 5d, (Z)-2-(4-cyanobenzylidene)-4,6-dimethoxybenzofuran-3(2H)-one] | 96.51 |
| COc1cc(O)c2c(c1)O/C(=C\c1ccccc1)C2=O [Example 6, (Z)-2-Benzylidene-4-hydroxy-6-methoxybenzofuran-3(2H)-one] | 121.56 |
| COc1cc(O)c2c(c1)O/C(=C\c1ccc(SC)cc1)C2=O [Example 6c] | 116.24 |
| COc1cc(O)c2c(c1)O/C(=C\c1ccc(C#N)cc1)C2=O [Example 6d] | 119.36 |
| CCc1ccc(/C=C2\Oc3cc(O)cc(O)c3C2=O)cc1 [Example 7b] | 143.15 |
